Results on two compounds are retold here after ChEMBL document CHEMBL5579794, “Improved synthesis and evaluation of preclinical pharmacodynamic parameters of a new monocyclic β-lactam DPI-2016” (Bioorg Med Chem Lett, 2024).

One data set concerns NRK-52E. Briefly: Cytotoxicity against rat NRK-52E cells at upto 300 ug/ml relative to control. In kind it is toxicity, cell-based. Particulars: up to 300 µg/mL.
Data set [1] relates to Pseudomonas aeruginosa. Briefly: Antibacterial activity against Pseudomonas aeruginosa infected in BalbC mouse model of Septicaemia infection assessed as survival rate at 4 mg/kg administered 30 mins post infection and measured after 1 day relative to control. In kind it is functional. Particulars: 24 h.
Data set [2] relates to Pseudomonas aeruginosa. In words: Antibacterial activity against Pseudomonas aeruginosa infected in BalbC mouse model of Septicaemia infection assessed as survival rate at 4 mg/kg administered 30 mins post infection and measured after 4 days relative to control. In kind it is functional. To be noted: 96 h, time 4 day.
In data set [3] the test system is Pseudomonas aeruginosa. Briefly: Antibacterial activity against Pseudomonas aeruginosa infected in BalbC mouse model of Septicaemia infection assessed as survival rate at 8 mg/kg administered 30 mins post infection and measured after 7 days relative to control. Format: functional. Particulars: 168 h, time 7 day.
Data set [4] has as its system Pseudomonas aeruginosa. In words: Antibacterial activity against Pseudomonas aeruginosa infected in BalbC mouse model of Septicaemia infection assessed as survival rate at 4 mg/kg administered 30 mins post infection and measured after 5 days relative to control. Format: functional. Particulars: 120 h, time 5 day.
Data set [5] in a line: Volume of distribution in male Sprague-Dawley rat at 2 mg/kg by LC-MS/MS analysis. Format: ADME, organism-based. To be noted: in vivo.
Data set [6] is described as follows: Stability in human plasma at 1 uM measured upto 120 mins by LC-MS/MS analysis. Format: ADME, cell-free. To be noted: 2 h.
In data set [7] the test system is Pseudomonas aeruginosa. Briefly: Antibacterial activity against Pseudomonas aeruginosa infected in BalbC mouse model of Septicaemia infection assessed as survival rate at 8 mg/kg administered 30 mins post infection and measured after 2 days relative to control. In kind it is functional. To be noted: 48 h, time 2 day.
The subject of data set [8] is Pseudomonas aeruginosa. In words: Antibacterial activity against Pseudomonas aeruginosa infected in BalbC mouse model of Septicaemia infection assessed as survival rate at 8 mg/kg administered 30 mins post infection and measured after 6 days relative to control. In kind it is functional. To be noted: 144 h, time 6 day.
In data set [9] the test system is Pseudomonas aeruginosa. Briefly: Antibacterial activity against Pseudomonas aeruginosa infected in BalbC mouse model of Septicaemia infection assessed as survival rate at 4 mg/kg administered 30 mins post infection and measured after 3 days relative to control. In kind it is functional. Particulars: 72 h, time 3 day.
The nature of data set [10]: Clearance in male Sprague-Dawley rat at 2 mg/kg by LC-MS/MS analysis. To be noted: in vivo. Format: ADME, organism-based.
Data set [11] relates to Pseudomonas aeruginosa. In words: Antibacterial activity against Pseudomonas aeruginosa infected in BalbC mouse model of Septicaemia infection assessed as survival rate at 4 mg/kg administered 30 mins post infection and measured after 2 days relative to control. In kind it is functional. Particulars: 48 h, time 2 day.
A further data set relates to HepG2. Briefly: Cytotoxicity against human HepG2 cells at upto 300 ug/ml relative to control. In kind it is toxicity, cell-based. To be noted: up to 300 µg/mL.
Data set [12] deals with Pseudomonas aeruginosa. Briefly: Antibacterial activity against Pseudomonas aeruginosa infected in BalbC mouse model of Septicaemia infection assessed as survival rate at 4 mg/kg administered 30 mins post infection and measured after 6 days relative to control. Format: functional. To be noted: 144 h, time 6 day.
In another data set the test system is H9c2. In words: Cytotoxicity against rat H9c2 cells at upto 300 ug/ml relative to control. In kind it is toxicity, cell-based. Particulars: up to 300 µg/mL.
The test system of data set [13] is Pseudomonas aeruginosa. In words: Antibacterial activity against Pseudomonas aeruginosa infected in BalbC mouse model of Septicaemia infection assessed as survival rate at 8 mg/kg administered 30 mins post infection and measured after 1 day relative to control. In kind it is functional. Particulars: 24 h.
The next data set deals with THP-1. Briefly: Cytotoxicity against human THP-1 cells at upto 300 ug/ml relative to control. Particulars: up to 300 µg/mL. In kind it is toxicity, cell-based.
Data set [14] can be described thus: Cytotoxicity against mouse BALB/3T3 clone A31 cells at upto 300 ug/ml relative to control. Format: toxicity, cell-based. Particulars: up to 300 µg/mL.
Data set [15] is described as follows: Plasma protein binding in mouse at 1 uM incubated for 6 hrs by LC-MS/MS analysis. In kind it is ADME, cell-free. To be noted: read-out: PPB (converted).
Data set [16] has as its system Pseudomonas aeruginosa. In words: Antibacterial activity against Pseudomonas aeruginosa infected in BalbC mouse model of Septicaemia infection assessed as survival rate at 8 mg/kg administered 30 mins post infection and measured after 3 days relative to control. Format: functional. To be noted: 72 h, time 3 day.
For the next data set, the system named is J774.A1. In words: Cytotoxicity against mouse J774.A1 cells at upto 300 ug/ml relative to control. In kind it is toxicity, cell-based. Particulars: up to 300 µg/mL.
Another data set has as its system H9. Briefly: Cytotoxicity against human H9 cells at upto 300 ug/ml relative to control. To be noted: up to 300 µg/mL. Format: toxicity, cell-based.
Data set [17] is described as follows: Half life in male Sprague-Dawley rat at 2 mg/kg by LC-MS/MS analysis. Particulars: in vivo. In kind it is ADME, organism-based.
Data set [18] deals with Pseudomonas aeruginosa. In words: Antibacterial activity against Pseudomonas aeruginosa infected in BalbC mouse model of Septicaemia infection assessed as survival rate at 8 mg/kg administered 30 mins post infection and measured after 5 days relative to control. Format: functional. To be noted: 120 h, time 5 day.
Data set [19] concerns Pseudomonas aeruginosa. In words: Antibacterial activity against Pseudomonas aeruginosa infected in BalbC mouse model of Septicaemia infection assessed as survival rate at 128 mg/kg administration starting at 0.5 to 2 hrs post infection and measured after 7 days relative to control. Particulars: 168 h, time 7 day. Format: functional.
The subject of data set [20] is Pseudomonas aeruginosa. In words: Antibacterial activity against Pseudomonas aeruginosa infected in BalbC mouse model of Septicaemia infection assessed as survival rate at 128 mg/kg administration starting at 0.5 to 2 hrs post infection and measured after 2 days relative to control. Particulars: 48 h, time 2 day. Format: functional.
Data set [21] has as its system Pseudomonas aeruginosa. In words: Antibacterial activity against Pseudomonas aeruginosa infected in BalbC mouse model of Septicaemia infection assessed as survival rate at 64 mg/kg administration starting at 0.5 to 2 hrs post infection and measured after 5 days relative to control. In kind it is functional. Particulars: 120 h, time 5 day.
The test system of data set [22] is Pseudomonas aeruginosa. In words: Antibacterial activity against Pseudomonas aeruginosa infected in BalbC mouse model of Septicaemia infection assessed as survival rate at 128 mg/kg administration starting at 0.5 to 2 hrs post infection and measured after 5 days relative to control. Format: functional. Particulars: 120 h, time 5 day.
Data set [23] has as its system Pseudomonas aeruginosa. Briefly: Antibacterial activity against Pseudomonas aeruginosa infected in BalbC mouse model of Septicaemia infection assessed as survival rate at 64 mg/kg administration starting at 0.5 to 2 hrs post infection and measured after 1 day relative to control. In kind it is functional. Particulars: 24 h.
The test system of data set [24] is Pseudomonas aeruginosa. In words: Antibacterial activity against Pseudomonas aeruginosa infected in BalbC mouse model of Septicaemia infection assessed as survival rate at 128 mg/kg administration starting at 0.5 to 2 hrs post infection and measured after 3 days relative to control. Format: functional. Particulars: 72 h, time 3 day.
In data set [25] the test system is Pseudomonas aeruginosa. Briefly: Antibacterial activity against Pseudomonas aeruginosa infected in BalbC mouse model of Septicaemia infection assessed as survival rate at 64 mg/kg administration starting at 0.5 to 2 hrs post infection and measured after 3 days relative to control. In kind it is functional. To be noted: 72 h, time 3 day.
The subject of data set [26] is Pseudomonas aeruginosa. Briefly: Antibacterial activity against Pseudomonas aeruginosa infected in BalbC mouse model of Septicaemia infection assessed as survival rate at 64 mg/kg administration starting at 0.5 to 2 hrs post infection and measured after 4 days relative to control. In kind it is functional. Particulars: 96 h, time 4 day.
For data set [27], the system named is Pseudomonas aeruginosa. Briefly: Antibacterial activity against Pseudomonas aeruginosa infected in BalbC mouse model of Septicaemia infection assessed as survival rate at 128 mg/kg administration starting at 0.5 to 2 hrs post infection and measured after 4 days relative to control. In kind it is functional. Particulars: 96 h, time 4 day.
For data set [28], the system named is Pseudomonas aeruginosa. In words: Antibacterial activity against Pseudomonas aeruginosa infected in BalbC mouse model of Septicaemia infection assessed as survival rate at 64 mg/kg administration starting at 0.5 to 2 hrs post infection and measured after 7 days relative to control. In kind it is functional. Particulars: 168 h, time 7 day.
Data set [29] relates to Pseudomonas aeruginosa. In words: Antibacterial activity against Pseudomonas aeruginosa infected in BalbC mouse model of Septicaemia infection assessed as survival rate at 64 mg/kg administration starting at 0.5 to 2 hrs post infection and measured after 6 days relative to control. To be noted: 144 h, time 6 day. Format: functional.
Data set [30] concerns Pseudomonas aeruginosa. Briefly: Antibacterial activity against Pseudomonas aeruginosa infected in BalbC mouse model of Septicaemia infection assessed as survival rate at 64 mg/kg administration starting at 0.5 to 2 hrs post infection and measured after 2 days relative to control. Format: functional. Particulars: 48 h, time 2 day.

On to `Cc1sc(N)nc1/C(=N/O[C@@H](COc1ccc(C(=N)N[C@@H]2CCNC2)cc1)C(=O)O)C(=O)N[C@@H]1C(=O)N(OS(=O)(=O)O)C1(C)C`, for which the Activity (in the data set on NRK-52E; in the data set with HepG2; in the data set with H9c2; in the data set with THP-1; in data set [14]; in the data set with J774.A1) was more than 80% in each case. Moreover, the Activity in the data set on H9 is listed as more than 80%. The survival at 4 mg/kg was 60% with Pseudomonas aeruginosa [1]; 30% in the data set on Pseudomonas aeruginosa [2]; 30% in the data set with Pseudomonas aeruginosa [4]; 30% in the data set with Pseudomonas aeruginosa [9]; 60% in the data set with Pseudomonas aeruginosa [11]; 30% in the data set on Pseudomonas aeruginosa [12]. The survival at 8 mg/kg in the data set with Pseudomonas aeruginosa [3] was determined as 60%; with Pseudomonas aeruginosa [7] it was 60%; with Pseudomonas aeruginosa [8] it was 60%; with Pseudomonas aeruginosa [13], 100%; in the data set on Pseudomonas aeruginosa [16] it was 60%; with Pseudomonas aeruginosa [18], 60%. The Vd (usually a proportionality between amount in the body and measured concentration, not a real space) in data set [5] is 0.37 L/kg. The Stability entry in data set [6] is recorded as “Stable”. Further, the clearance (usually the rate of elimination divided by the concentration) in data set [10] was 12.5 mL/min/kg. Moreover, the fraction unbound at 6 h, 1 µM in [15] was 0.532. Moreover, the half-life – broadly, the time needed for the level to fall by half in the phase considered – in [17] was 24 min.
For `C[C@H]1[C@H](NC(=O)/C(=N\OC(C)(C)C(=O)O)c2csc(N)n2)C(=O)N1S(=O)(=O)O` [AZTREONAM], the survival at 128 mg/kg in the data set on Pseudomonas aeruginosa [19], with Pseudomonas aeruginosa [20], with Pseudomonas aeruginosa [22], with Pseudomonas aeruginosa [24] and in the data set on Pseudomonas aeruginosa [27] was 90% each time. Moreover, the survival at 64 mg/kg is 60% in the data set with Pseudomonas aeruginosa [21]; 100% in the data set on Pseudomonas aeruginosa [23]; 60% in the data set on Pseudomonas aeruginosa [25]; 60% with Pseudomonas aeruginosa [26]; 60% in the data set with Pseudomonas aeruginosa [28]; 60% in the data set on Pseudomonas aeruginosa [29]. Moreover, the survival at 64 mg/kg with Pseudomonas aeruginosa [30] is 60%.
